Data from US10640556B2, “Anti amphiregulin antibodies, compositions comprising same and uses thereof” (Yeda Research and Development Co. Ltd., priority 2015, dated 2020).

Assays:
[1] = test system: promoter region of TGF-alpha; test: TGF-alpha promoter luciferase reporter in MLS cells; format: cell-based, human; settings: increasing concentrations of cisplatin, 24 hours
Description: FIGS. 5C-5F illustrate that AREG, unlike HB-EGF and TGF-alpha, undergoes up-regulation in response to a chemotherapeutic agent. FIG. 5C is a graph illustrating results of MLS cells transfected with a luciferase reporter containing the promoter region of TGF-alpha. The luciferase activity derived from the Renilla luciferase was normalized to that derived from the firefly luciferase (co-transfection control). Twenty-four hours after transfection, increasing concentrations of cisplatin were added, and 24 hours later the cells were subjected to luciferase assays; FIG. 5D is a graph illustrating assessment of GAPDH promoter activity as described in FIG. 5C; FIG. 5E is a graph illustrating the results of MLS ovarian cancer cells exposed to increasing concentrations of cisplatin. Cells were assessed for the secretion of the indicated ligands using ELISA; and FIG. 5F is a graph illustrating assessment of the A549 lung cancer cell line analyzed as in FIG. 5E. […] Promoter activity was determined using the dual-luciferase reporter assay system according to the manufacturer's instructions (Promega). Renilla luciferase luminescence values were normalized to Firefly luminescence and quantified relative to control.

[2] = test system: MLS ovarian cancer cells; test: MLS ovarian tumor xenograft in nude mice; format: in vivo; settings: MLS tumors, AR30 100 μg/mouse twice a week, cisplatin 5 mg/kg, FIG. 7B
Description: FIG. 7A, female nude mice (6 weeks old) were inoculated subcutaneously with MLS ovarian cancer cells (2×10^6 per animal). Once tumors became palpable, mice were randomized into two groups. Eleven mice were injected intraperitoneally with an anti-AREG mAb (AR30; 200 μg/mouse; twice a week, on days: 8, 11, 14, 17, and 21). The control group also included 11 mice. Shown are means±S.D. values; FIG. 7B, female nude mice (6 weeks old) were inoculated subcutaneously with MLS ovarian cancer cells (2×10^6 per animal). Once tumors became palpable, mice were randomized into four groups. One group (8 mice) was injected intraperitoneally with the AR30 mAb (100 μg/mouse twice a week, on days: 8, 14, 17, 21, 24 and 28). Another group (8 mice) was treated with cisplatin (5 mg/kg; on days 8 and 21). The fourth group was treated with a combination of mAb AR30 and cisplatin. The control group included 12 mice; and FIG. 7C, the indicated MLS tumors were excised, and their average weights determined. Representative tumors were photographed.
All animal procedures were approved by the Weizmann Institute of Science's review board. Female athymic NCr-nude mice (6 weeks old) were inoculated subcutaneously with 2×10^6 human ovarian MLS cancer cells. Once tumors became palpable (5-7 days), the mice were randomized into groups and injected intraperitoneally at the indicated time points with the indicated monoclonal antibodies, chemotherapy or the combination. Tumor volumes were monitored twice a week, and body weights were measured once a week.

[3] = test system: MLS ovarian cancer cells and A549 lung cancer cells; test: ELISA of ligand secretion by MLS and A549 cells; format: cell-based, human; settings: ovarian (MLS) and lung (A549) cancer cells exposed to cisplatin
Description: FIGS. 5C-5F illustrate that AREG, unlike HB-EGF and TGF-alpha, undergoes up-regulation in response to a chemotherapeutic agent. FIG. 5C is a graph illustrating results of MLS cells transfected with a luciferase reporter containing the promoter region of TGF-alpha. The luciferase activity derived from the Renilla luciferase was normalized to that derived from the firefly luciferase (co-transfection control). Twenty-four hours after transfection, increasing concentrations of cisplatin were added, and 24 hours later the cells were subjected to luciferase assays; FIG. 5D is a graph illustrating assessment of GAPDH promoter activity as described in FIG. 5C; FIG. 5E is a graph illustrating the results of MLS ovarian cancer cells exposed to increasing concentrations of cisplatin. Cells were assessed for the secretion of the indicated ligands using ELISA; and FIG. 5F is a graph illustrating assessment of the A549 lung cancer cell line analyzed as in FIG. 5E. Human cancer cell lines were seeded in 10 cm plates, covered with medium (6 mL) and incubated for 4 days. The supernatants were collected and centrifuged at 1200 rpm for 5 minutes.

[4] = test system: promoter region of AREG; test: AREG promoter luciferase reporter in MLS cells; format: cell-based, human; settings: MLS ovarian cells, increasing concentrations of cisplatin, 48 hours
Description: (§1) FIGS. 5A-5B illustrate transcriptional activation of the AREG promoter by cisplatin. FIG. 5A is a graph illustrating the results of MLS cells transfected with a luciferase reporter containing the promoter region of AREG. Luciferase activity derived from the Renilla luciferase, was determined and normalized to that derived from the firefly luciferase reporter. Twenty-four hours after transfection, increasing concentrations of cisplatin were added and 48 hours later the cells were subjected to luciferase assay; and FIG. 5B illustrates the results of A549 lung cancer cells treated as in FIG. 5A. Averages of triplicates and S.D. values (bars) are presented (*P<0.03, **P<0.01, t-test). For promoter reporter assays, MLS and A549 cells were co-transfected with a Renilla luciferase plasmid containing the promoter region of AREG, TGF-alpha, a positive control of promoter activity, namely GAPDH, or a random control vector R01 used as a negative control (SwitchGear Genomics). Additionally, the pGL3-Control vector containing Firefly luciferase (Promega) was transfected as a control for transfection efficiency. Promoter activity was determined using the dual-luciferase reporter assay system according to the manufacturer's instructions (Promega). Renilla luciferase luminescence values were normalized to Firefly luminescence and quantified relative to control.

[5] = test system: promoter region of AREG; test: AREG promoter luciferase reporter in A549 cells; format: cell-based, human; settings: A549 lung cells, increasing concentrations of cisplatin, 48 hours
Description: as §1

[6] = test system: Caspase-3; test: Caspase-3 cleavage immunoblot in OVCAR5 cells; format: cell-based, human; settings: cisplatin 5 μg/mL overnight as positive control
Description: FIGS. 4A-4D illustrate that depletion of AREG expression inhibits tumorigenic growth of human ovarian cancer cells. FIG. 4A is a graph illustrating results of OVCAR5 ovarian cancer cells treated with lentiviral expression constructs, either a scrambled shRNA or an AREG-specific shRNA. Conditioned media were collected three days later and the levels of secreted AREG were assessed using ELISA; FIG. 4B is a graph illustrating the growth rates of shAREG or shControl OVCAR5 cells measured using the MTT assay. Shown are means±S.D. values of hexaplicates (*P<0.005, t-test); FIG. 4C is a photograph illustrating Caspase-3 cleavage as assessed using immunoblotting and OVCAR5 sub-lines stably expressing three different shAREGs, or shControl. The assay was performed either in full medium or under serum starvation. Overnight treatment with cisplatin (5 μg/mL) was used as a positive control. […] Female nude mice (6 weeks old; 10 per group) were inoculated subcutaneously with OVCAR5 ovarian cells (3×10^6 per animal) pre-treated with either a scrambled shRNA or the AREG-specific shRNA. Tumor volumes were measured as indicated. Data points are presented as mean volume±S.D. values (*P<0.005, t-test).

SMILES: N.N.[Cl][Pt][Cl] [cisplatin]
- TGF-alpha promoter reporter activity [1]: no consistent, cisplatin-induced changes in TGF-alpha induction
- tumor growth [2]: only mildly inhibited
- secretion of EGF-family ligands to the medium [3]: increased secretion of AREG, not EGF, TGF-alpha or HB-EGF
- increase in AREG promoter reporter activity [4]: 2 fold
- increase in AREG promoter reporter activity [5]: 1.5 fold
- Caspase-3 cleavage [6]: cleaved only in cells incubated for 12 hours in the presence of cisplatin
